# US20230190760A1, “ADVANTAGEOUS THERAPIES FOR DISORDERS MEDIATED BY IKAROS OR AIOLOS” (C4 Therapeutics, Inc., priority 2020, published 2023)
# Columns and labels:
# DOHH-2 = assay: Anti-proliferative activity, 96 hours; conditions: Homo sapiens, DOHH-2, 96 h
# Mino = assay: Anti-proliferative activity, 96 hours; conditions: Homo sapiens
# TMD8 DLBCL tumors = conditions: Compound 1 50 μg/kg, Ibrutinib 12500 μg/kg
# Protocol: A xenograft study was conducted in female CB17 SCID mice bearing TMD8 DLBCL tumors. Female SCID mice were inoculated subcutaneously in the right flank with 5×10^6 tumors cells in 0.2 mL of PBS supplemented with matrigel (PBS:matrigel=1:1). Tumor volume was measured twice weekly in two dimensions using calipers, and volume was calculated using the formula: (w2×l)/2=mm^3, assuming 1 mg is equivalent to 1 mm^3 of tumor volume. […] Treatment began on Day 0 with established subcutaneous TMD8 tumors with a mean tumor volume (MTV) of 107-108 mm^3.
# All agents were administered to mice bearing TMD8 tumors on day 0 and dosed PO daily until individual tumor volumes reached or exceeded 1500 mm^3, at which point dosing stopped and the individual mouse was removed from the study. Compound 1 was dosed at 50 μg/kg and was formulated in PEG400 (30% v/v)+70% v/v HPMC (1% w/v) in citrate buffer (pH 5). Ibrutinib was dosed at 12.5 mg/kg and formulated in 0.5% MC+0.4% cremophor EL+0.1% sodium lauryl sulfate. Compound 1 was also dosed in combination with Ibrutinib at their respective single agent doses. Body weight and MTV was measured on a 2× weekly schedule and the study end point was when all mice were removed from the study on day 54. Statistical analysis was performed using survival analysis and the Logrank test (Mantel-Cox test). Data are expressed as MTV±SEM.
# MM.1R = assay: Anti-proliferative activity, 96 hours
# LP-1 = assay: Anti-proliferative activity, 96 hours; conditions: Homo sapiens, LP-1, 96 h
# [1] = test system: REC1 mantle cell lymphoma tumors; assay: REC1 mantle cell lymphoma xenograft, balb/c nude mice; type: in vivo
# Protocol: A xenograft study was conducted in female balb/c nude mice bearing REC1 mantle cell lymphoma tumors.
# Statistical analysis was performed using two-way analysis of variance (ANOVA). Data are expressed as MTV±SEM.
# [2] = test system: MM1.S multiple myeloma tumors; assay: Disseminated MM1.S-Luc multiple myeloma model, bioluminescence; type: in vivo, mice; conditions: 300 μg/kg QD orally
# Protocol: Compound 1 was administered at 300 μg/kg QD (every day) orally to female NOD SCID mice with disseminated MM1.S multiple myeloma tumors with a measurable MM1.S tumor burden on day 0 and dosed PO daily for 3 weeks. […] Data are expressed as mean BLI±SEM.
# A xenograft study was conducted. Female SCID animals were irradiated with a 200 rads Co60 irradiator source and after 24 hours, animals were inoculated via tail vein injection with 1×107 MM1.S-Luc in 200 μL PBS. Tumor burden was measured twice weekly using imaging analysis. Mice were injected intraperitoneally with 15 mg/mL of D-luciferin and anesthetized with 1-2% isoflurane inhalation. 10 minutes post luciferin injection, mice were imaged using IVIS Lumina II (Perkin Elmer) and total bioluminescence signal (BLI, photons/s) was measured in a region of interest (ROI). BLI from ROI were quantified and used as an indicator of tumor burden. 29 days post tumor cell inoculation mice were randomized into two groups, with 3 mice per group and an average BLI of 17×10^6 photons. FIG. 6 are images of the mice administered Compound 1 compared to the mice administered vehicle. Images were taken on days 4, 7, 11, 14, and 18.
# [3] = test system: Caspase 3/7 activity in TMD8 cells; assay: Apoptosis induction, Caspase 3/7 activity in TMD8 cells
# Protocol: 30 μL TMD8 cells were seeded into the 384-well plates in RPMI medium containing 10% FBS at a cell density of 2000 cells per well. Cells treated in the absence of the test compound were the negative control. Following compound treatment, cells were incubated at 37° C. with 5% CO2 for 48 hr. 30 μL reconstituted Caspase 3/7 Assay detection reagent was added to each well and luminescence was acquired on EnVision™ Multilabel Reader (PerkinElmer, Santa Clara, Calif., USA).
# IKZF1 = IKZF1 (Homo sapiens, UniProt Q13422+Q96SW2)
# Chain of IKZF1 (Q13422 whole entry): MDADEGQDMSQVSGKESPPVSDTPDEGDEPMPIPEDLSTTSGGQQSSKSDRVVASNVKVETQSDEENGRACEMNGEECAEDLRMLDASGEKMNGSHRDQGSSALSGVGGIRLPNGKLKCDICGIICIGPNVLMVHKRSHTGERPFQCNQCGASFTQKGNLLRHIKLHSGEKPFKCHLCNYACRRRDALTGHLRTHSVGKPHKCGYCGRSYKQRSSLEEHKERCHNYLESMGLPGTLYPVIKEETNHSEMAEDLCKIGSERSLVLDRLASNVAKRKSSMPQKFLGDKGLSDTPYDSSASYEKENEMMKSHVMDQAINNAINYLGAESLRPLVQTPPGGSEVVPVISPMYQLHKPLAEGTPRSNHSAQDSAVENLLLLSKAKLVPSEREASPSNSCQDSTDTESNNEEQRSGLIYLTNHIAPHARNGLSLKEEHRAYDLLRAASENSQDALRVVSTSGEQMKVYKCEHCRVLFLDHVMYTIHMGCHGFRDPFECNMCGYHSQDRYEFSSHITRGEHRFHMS
# Chain of IKZF1 (Q96SW2 whole entry): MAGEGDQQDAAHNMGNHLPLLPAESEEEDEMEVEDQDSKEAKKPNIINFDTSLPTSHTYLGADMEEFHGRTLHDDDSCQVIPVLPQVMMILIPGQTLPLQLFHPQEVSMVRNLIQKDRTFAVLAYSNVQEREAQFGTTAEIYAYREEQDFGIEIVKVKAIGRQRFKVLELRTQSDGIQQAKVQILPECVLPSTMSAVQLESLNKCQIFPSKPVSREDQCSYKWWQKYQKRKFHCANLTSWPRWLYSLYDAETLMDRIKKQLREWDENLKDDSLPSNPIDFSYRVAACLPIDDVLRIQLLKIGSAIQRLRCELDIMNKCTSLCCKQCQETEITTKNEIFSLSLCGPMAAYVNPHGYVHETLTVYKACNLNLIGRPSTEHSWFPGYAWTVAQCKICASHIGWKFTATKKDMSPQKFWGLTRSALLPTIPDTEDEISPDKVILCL
# Chain of IKZF1 (Q16531 2-1140 partner limits assumed): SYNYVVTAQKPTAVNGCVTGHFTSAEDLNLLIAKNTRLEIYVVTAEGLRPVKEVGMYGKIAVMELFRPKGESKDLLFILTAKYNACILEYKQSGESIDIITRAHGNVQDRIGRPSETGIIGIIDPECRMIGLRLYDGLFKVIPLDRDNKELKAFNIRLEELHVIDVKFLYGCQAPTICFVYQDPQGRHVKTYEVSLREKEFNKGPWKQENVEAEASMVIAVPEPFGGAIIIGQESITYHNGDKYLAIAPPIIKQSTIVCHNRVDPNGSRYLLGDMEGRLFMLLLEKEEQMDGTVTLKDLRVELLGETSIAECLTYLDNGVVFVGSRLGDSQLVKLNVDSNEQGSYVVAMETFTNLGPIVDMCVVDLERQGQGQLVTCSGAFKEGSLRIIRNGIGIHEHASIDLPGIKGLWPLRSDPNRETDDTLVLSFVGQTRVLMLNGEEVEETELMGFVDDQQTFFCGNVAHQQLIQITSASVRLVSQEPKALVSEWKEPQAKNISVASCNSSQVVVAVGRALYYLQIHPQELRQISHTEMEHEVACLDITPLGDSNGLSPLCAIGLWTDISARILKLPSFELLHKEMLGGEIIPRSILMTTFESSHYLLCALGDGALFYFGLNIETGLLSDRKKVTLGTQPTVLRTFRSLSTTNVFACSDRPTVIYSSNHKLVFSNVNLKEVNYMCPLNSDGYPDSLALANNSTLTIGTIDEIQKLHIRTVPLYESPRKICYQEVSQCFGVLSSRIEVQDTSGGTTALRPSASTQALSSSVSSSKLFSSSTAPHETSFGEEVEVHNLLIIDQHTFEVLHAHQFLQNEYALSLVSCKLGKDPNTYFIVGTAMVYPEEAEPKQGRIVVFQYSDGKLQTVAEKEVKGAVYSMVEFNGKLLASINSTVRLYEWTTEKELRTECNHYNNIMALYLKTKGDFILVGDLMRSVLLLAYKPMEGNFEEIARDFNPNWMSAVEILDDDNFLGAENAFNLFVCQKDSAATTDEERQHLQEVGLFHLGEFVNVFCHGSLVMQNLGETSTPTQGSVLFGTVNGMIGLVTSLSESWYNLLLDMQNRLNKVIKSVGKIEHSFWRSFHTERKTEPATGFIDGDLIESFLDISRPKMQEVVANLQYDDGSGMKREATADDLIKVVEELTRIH
# Protocol: Endogenous expression of IKZF1 in NCIH929 cells was determined by addition of N-terminal HiBiT tag to the NCIH929 cell line using CRISPR-Cas9. Briefly, test compound was added to 384-well plates at a top concentration of 1 μM with 10 points, half log titration in duplicates. NCIH929 cells expressing HiBiT-tagged IKZF1 were seeded into the 384-well plates in RPMI medium containing 10% FBS and 0.05 mM 2-mercaptoethanol at a cell density of 15000 cells per well. Cells treated in the absence of the test compound were the negative control and wells containing media only were the positive control. Following compound treatment, cells were incubated at 37° C. with 5% CO2 for 1.5 hr. HiBiT signal was determined using Nano-Glo™ HiBiT Lytic Assay System (Promega, N3050) and luminescence was acquired on EnVision™ Multilabel Reader (PerkinElmer, Santa Clara, Calif., USA). % IKZF1 remaining was determined by normalizing the signal with positive and negative controls on the same microtiter plate. […] Curve fit and IC50 determination was performed by 4 parametric regression analysis.
# NCIH929 cells expressing HiBiT-tagged IKZF1 were seeded into the 384-well plates in RPMI medium containing 10% FBS and 0.05 mM 2-mercaptoethanol at a cell density of 15000 cells per well. Cells treated in the absence of the test compound were the negative control and wells containing media only were the positive control. Following compound treatment, cells were incubated at 37° C. with 5% CO2 for 1 or 2 hr. HiBiT signal was determined using Nano-Glo™ HiBiT Lytic Assay System (Promega, N3050) and luminescence was acquired on EnVision™ Multilabel Reader (PerkinElmer, Santa Clara, Calif., USA). % IKZF1 remaining was determined by normalizing the signal with positive and negative controls on the same microtiter plate. Curve fit and IC50 determination was performed by 4 parametric regression analysis.
# [4] = test system: anaplastic large cell lymphoma (ALCL) cell lines; assay: Anti-cancer activity in ALCL cell lines; type: cell-based; conditions: four out of six cell lines were responsive; read-out: mean IC50 among the responsive lines
# IKZF1 and IKZF3 = IKZF1 and IKZF3 in blood cells of a monkey by flow cytometry; type: in vivo, cynomolgus monkey; conditions: 30 μg/kg oral gavage, 4-hour and 24-hour timepoint
# Protocol: One fasted male cynomolgus monkey was administered Compound 1 formulated in 1% carboxymethylcellulose sodium+20% PEG400 in citrate buffer at 30 μg/kg by oral gavage. At indicated timepoints, blood was collected from a peripheral vessel from a restrained, non sedated monkey. 50 uL of whole blood was added to a flow tube with 1 ml PBS, centrifuged for 5 minutes at 400×g and supernatant discarded. Blood was lysed in 1 mL of lysis buffer for 10-15 minutes at room temperature, centrifuged for 5 minutes at 400× and supernatant discarded. PBS (1 mL) was added to each tube, centrifuged for 5 minutes at 400×g and supernatant discarded. PBS (1 mL) was added together with 1 ul of Zombie NIR dye to the white blood cells and incubated for 20 minutes at room temperature. The cells were centrifuged for 5 minutes at 400×g and supernatant discarded. Fixation buffer (1 mL) was added and incubated for 20 minutes at room temperature. Cells were washed with permeabilization buffer (1 mL) and centrifuged for 5 minutes at 400×g and supernatant discarded. […] Cells were washed twice with PBS (1 mL), resuspended in PBS and analyzed analyzed on a BD LSR Fortessa Flow Cytometer. FIG. 24 is a graph of the percent mean fluorescence intensity of IKZF1 and IZKF3 at 4 h and 24 hr post dose compared to the pre-dose sample. […]
# Farage = assay: Anti-proliferative activity, 96 hours
# [5] = test system: IKZF1, IKZF3, IRF-1, IRF-4 and Caspase-3; assay: KI-JK ALCL tumor protein expression, western blot (Example 20); type: in vivo, mice; conditions: 100 μg/kg PO
# Protocol: A second xenograft study was conducted in female NOD SCID mice bearing KI-JK ALCL tumors. […] Once tumors reached a mean tumor volume (MTV) of 450 mm^3 they were stratified into two groups.
# For the vehicle control group, 2 mice were sacrificed, and tumors harvested 24 hours post a single dose. Mice in the Compound 1 group were sampled at 4- and 24-hours post dose a single dose, with two tumors collected per time point. Additional mice were dosed daily for 5 or 7 days with tumor collections 24 hours post last dose, with 2 mice sampled per time point. Tumors were then mechanically homogenized, and protein extracted using RIPA buffer (Sigma Aldrich). Protein concentration was quantified using a Pierce™ BCA Protein Assay Kit, samples were reduced, and equal protein amounts were then loaded onto a western blot gel for analysis. Tumors were analyzed for IKZF1 (Invitrogen, PA5-23728), IKZF3 (CST, 15103), IRF-1 (CST, 8478), IFR-4 (CST, 15106), and Caspase-3 (CST, 9662) expression. […] Data is expressed as percentage of each target in comparison to the target level measured in the vehicle control and normalized to GAPDH levels to control for protein loading. Error bars represent ±SEM values.
structure (smiles),measurement,setting,value
"O=C1CC[C@H](N2C(=O)c3cccc4c(Cc5ccc(CN6CCOCC6)cc5)ccc2c34)C(=O)N1 (single isomer, unassigned) [Compound 1]",IC50,DOHH-2,2.73 nM
same,IC50,Mino,0.194 nM
same,Median Survival,"TMD8 DLBCL tumors; Combination of both, PO daily",30
same,Statistical Significance Compared to Vehicle,"TMD8 DLBCL tumors; survival, Logrank, Combination",0.02
same,IC50,MM.1R,0.083 nM
same,IC50,LP-1,0.642 nM
same,Statistical Significance Compared to Vehicle,[1]; 30 μg/kg PO daily,0.04
same,Statistical Significance Compared to Vehicle,[1]; 100 μg/kg PO daily,0.04
same,tumor volume,"[1]; Compound 1 10, 30, or 100 μg/kg, pomalidomide 3000 μg/kg, 18 days",decreased
same,total bioluminescence signal,[2],significantly less than the mice administered vehicle
same,Maximum caspase 3/7 activity,[3]; 48 hr,> 8 fold
same,activity level of caspase-3 and caspase-7 increased,[3]; FIG. 51,more than 800%
same,EC50,"[3]; Homo sapiens, TMD8, 48 h, read-out: EC50, caspase 3/7 activity",2.7 nM
same,DC50,IKZF1; 2 hour treatment,0.021 nM
same,Emax,"IKZF1; NCI-H929, read-out: Mean Emax (%) ± SD, IKZF1 Degradation",22.4 ± 3.1%
same,Dmax,"IKZF1; NCI-H929, read-out: maximal degradation of IKZF1",> 80%
same,IKZF1 degradation,IKZF1; after 1 hour treatment,50%
same,potency greater than pomalidomide,IKZF1; at 2 hr,> 2000 fold
same,degradation of steady state IKZF1,"IKZF1; multiple myeloma cells, within 1.5 hours at 0.3 nM",> 75%
same,IC50,[4],1.7 nM
same,levels of IKZF1 and IKZF3 versus pre-dose,IKZF1 and IKZF3,smaller
same,IC50,Farage,56.3 nM
same,concentration of caspase-3 and IRF-1,[5],increased
same,"percentage of IKZF1, IKZF3, and IRF-4",[5],decreased
